Values of other authors, collected in patent US9974722B2, “Reduced-ethanol mouth rinse formulations” (Johnson & Johnson Consumer Inc., priority 2016, dated 2018).

## CC1CCC(C(C)C)C(O)C1 (stereo not shown) [Menthol]
  solubility in alcohol: only slightly soluble
